Laboratory results taken from article PMC8573357, “Exploring Multifunctional Bioactive Components from Podophyllum sinense Using Multi-Target Ultrafiltration” (Frontiers in Pharmacology, 2021).

Biological target: ACE2 (Homo sapiens, UniProt Q9BYF1)
Test: affinity ultrafiltration-HPLC/MS from crude extract against heat-inactivated control; identity by standard
Assay type: binding

ACE2, sequence (Q9BYF1 18-805): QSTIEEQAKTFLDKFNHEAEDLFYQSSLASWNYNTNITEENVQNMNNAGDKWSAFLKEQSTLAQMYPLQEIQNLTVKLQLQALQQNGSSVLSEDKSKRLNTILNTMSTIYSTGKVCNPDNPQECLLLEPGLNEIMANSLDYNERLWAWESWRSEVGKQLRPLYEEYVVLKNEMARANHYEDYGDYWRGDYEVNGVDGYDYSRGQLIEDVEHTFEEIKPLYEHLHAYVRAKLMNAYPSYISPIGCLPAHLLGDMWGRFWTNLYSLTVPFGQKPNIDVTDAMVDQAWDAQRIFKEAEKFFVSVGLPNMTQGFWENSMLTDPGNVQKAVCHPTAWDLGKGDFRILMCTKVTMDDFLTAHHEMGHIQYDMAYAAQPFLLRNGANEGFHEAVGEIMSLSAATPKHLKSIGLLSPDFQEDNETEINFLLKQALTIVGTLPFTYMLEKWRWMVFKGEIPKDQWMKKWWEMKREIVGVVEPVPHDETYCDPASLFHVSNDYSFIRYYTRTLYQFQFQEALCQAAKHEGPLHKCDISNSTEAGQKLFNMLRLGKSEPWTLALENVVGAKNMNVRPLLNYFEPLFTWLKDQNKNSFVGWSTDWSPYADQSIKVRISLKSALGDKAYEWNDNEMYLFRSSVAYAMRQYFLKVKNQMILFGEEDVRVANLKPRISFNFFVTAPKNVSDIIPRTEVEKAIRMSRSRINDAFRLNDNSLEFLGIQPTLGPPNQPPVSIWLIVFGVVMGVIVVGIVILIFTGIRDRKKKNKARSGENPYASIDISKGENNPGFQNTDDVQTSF

| EFs ^b (%) / ACE2 | SMILES |
| --- | --- |
| 3.10 % (enrichment factor) | O=c1c(O)c(-c2ccc(O)cc2)oc2cc(O)cc(O)c12 [Peak 7, Kaempferol] |
| 3.68 % (enrichment factor) | COc1cc2c(O)c3c(c(-c4ccc5c(c4)OCO5)c2cc1OC)C(=O)OC3 [Peak 10, Diphyllin] |
